# Measured values taken from patent US20250368666A1, “INDAZOLE COMPOUNDS” (TYRA BIOSCIENCES, INC., priority 2022, published 2025).
# Structures can show the parent of a compound that is named as a salt.
# What was measured:
# [1] = system: MDA-MB-453 cell line (FGFR4-Y367C); experiment: Cancer cell line cell viability assay (Cell Titer-Glo), 120 hr; assay type: cell-based; settings: Homo sapiens
# Procedure, shortened: (§1)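 ATP-based luminescence (Cell Titer-Glo 2.0) measured viability after 72 h (KG-1, RT112/84) or 120 h (MDA-MB-453, HuH7) compound exposure. Dosing was nine 4-fold steps starting at 3 μM, in triplicate, on overnight-plated cells. IC50 came from a variable-slope 4-parameter fit of % DMSO control.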
# FGFR3 = biological target: T1, FGFR3 (Homo sapiens, UniProt P22607); experiment: Kinase binding assay (kinase-tagged T7 phage, affinity beads, qPCR), Kd; settings: read-out: FGFR3 (Kd nM)
# T1 construct: made in house; host or cells: E. coli (BL21-derived), T7 phage
# Procedure, shortened: (§2)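 Competition binding of compounds against kinase-tagged T7 phage captured on immobilised biotinylated ligand beads; bead-bound kinase quantified by qPCR of eluates. 11-point 3-fold dilution, 0.9% DMSO final; Kd from Hill fit with slope fixed at −1.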
# FGFR1 = biological target: T2, FGFR1 (Homo sapiens, UniProt P11362); experiment: as above; settings: read-out: FGFR1 (Kd nM)
# T2 construct: made in house; host or cells: E. coli (BL21-derived), T7 phage
# Procedure, shortened: as §2
# [2] = system: RT112/84 cell line (FGFR3-fusion); experiment: Cancer cell line cell viability assay (Cell Titer-Glo), 72 hr; assay type: cell-based; settings: Homo sapiens, RT112/84, RT112/84 cell line (FGFR3-fusion)
# Procedure, shortened: as §1
# [3] = system: KG-1 cell line (FGFR 1-fusion); experiment: as above; assay type: cell-based; settings: Homo sapiens, KG-1, KG-1 cell line (FGFR1-fusion)
# Procedure, shortened: as §1
# [4] = system: KATO-III cell line (FGFR2 amplification); experiment: as above; assay type: cell-based; settings: Homo sapiens, KATO III
# Procedure, shortened: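 Following overnight attachment, each line receives compound in triplicate across nine 4-fold dilutions starting at 3 μM, with DMSO backfill for equal solvent. Luminescence after Cell Titer-Glo 2.0 addition gives percent viability versus DMSO control, fitted by 4-parameter logistic for IC50.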
# [5] = system: HuH7 cell line (FGF19 amplification); experiment: Cancer cell line cell viability assay (Cell Titer-Glo), 120 hr; assay type: cell-based; settings: Homo sapiens, Huh-7
# Procedure, shortened: as §1
# FGFR4 = biological target: T3, FGFR4 (Homo sapiens, UniProt P22455); experiment: Kinase binding assay (kinase-tagged T7 phage, affinity beads, qPCR), Kd; settings: read-out: FGFR4 (Kd nM)
# T3 construct: made in house; host or cells: E. coli (BL21-derived), T7 phage
# Procedure, shortened: as §2
# FGFR3 (V555M) = biological target: T4, FGFR3 (V555M) (Homo sapiens, UniProt P22607, V555M); experiment: as above; settings: V555M mutant; read-out: FGFR3 (V555M) (Kd nM)
# T4 construct: made in house; host or cells: E. coli (BL21-derived), T7 phage
# Procedure, shortened: as §2
# FGFR2 = biological target: T5, FGFR2 (Homo sapiens, UniProt P21802); experiment: as above; settings: read-out: FGFR2 (Kd nM)
# T5 construct: made in house; host or cells: E. coli (BL21-derived), T7 phage
# Procedure, shortened: as §2
# T1 sequence (P22607 23-806): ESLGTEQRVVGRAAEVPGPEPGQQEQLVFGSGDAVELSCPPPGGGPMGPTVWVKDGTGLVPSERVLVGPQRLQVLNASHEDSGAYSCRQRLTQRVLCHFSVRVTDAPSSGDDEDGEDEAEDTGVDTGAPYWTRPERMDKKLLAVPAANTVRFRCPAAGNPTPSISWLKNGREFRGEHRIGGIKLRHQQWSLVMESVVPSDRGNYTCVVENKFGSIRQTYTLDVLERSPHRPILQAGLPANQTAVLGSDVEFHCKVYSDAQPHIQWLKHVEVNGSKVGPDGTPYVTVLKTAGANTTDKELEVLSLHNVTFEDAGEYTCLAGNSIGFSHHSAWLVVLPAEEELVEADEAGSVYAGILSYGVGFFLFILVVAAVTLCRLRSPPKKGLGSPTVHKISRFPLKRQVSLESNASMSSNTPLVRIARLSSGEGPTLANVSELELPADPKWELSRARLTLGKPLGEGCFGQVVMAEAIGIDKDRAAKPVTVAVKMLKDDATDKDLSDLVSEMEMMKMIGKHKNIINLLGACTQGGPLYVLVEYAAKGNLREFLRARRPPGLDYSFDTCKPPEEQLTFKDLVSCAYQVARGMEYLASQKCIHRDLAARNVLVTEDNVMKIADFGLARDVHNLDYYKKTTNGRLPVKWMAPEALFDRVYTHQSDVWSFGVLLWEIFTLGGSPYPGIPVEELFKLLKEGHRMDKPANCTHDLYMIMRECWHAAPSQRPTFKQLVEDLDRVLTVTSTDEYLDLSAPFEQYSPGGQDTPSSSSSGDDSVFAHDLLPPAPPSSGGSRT
# T2 sequence (P11362 22-822): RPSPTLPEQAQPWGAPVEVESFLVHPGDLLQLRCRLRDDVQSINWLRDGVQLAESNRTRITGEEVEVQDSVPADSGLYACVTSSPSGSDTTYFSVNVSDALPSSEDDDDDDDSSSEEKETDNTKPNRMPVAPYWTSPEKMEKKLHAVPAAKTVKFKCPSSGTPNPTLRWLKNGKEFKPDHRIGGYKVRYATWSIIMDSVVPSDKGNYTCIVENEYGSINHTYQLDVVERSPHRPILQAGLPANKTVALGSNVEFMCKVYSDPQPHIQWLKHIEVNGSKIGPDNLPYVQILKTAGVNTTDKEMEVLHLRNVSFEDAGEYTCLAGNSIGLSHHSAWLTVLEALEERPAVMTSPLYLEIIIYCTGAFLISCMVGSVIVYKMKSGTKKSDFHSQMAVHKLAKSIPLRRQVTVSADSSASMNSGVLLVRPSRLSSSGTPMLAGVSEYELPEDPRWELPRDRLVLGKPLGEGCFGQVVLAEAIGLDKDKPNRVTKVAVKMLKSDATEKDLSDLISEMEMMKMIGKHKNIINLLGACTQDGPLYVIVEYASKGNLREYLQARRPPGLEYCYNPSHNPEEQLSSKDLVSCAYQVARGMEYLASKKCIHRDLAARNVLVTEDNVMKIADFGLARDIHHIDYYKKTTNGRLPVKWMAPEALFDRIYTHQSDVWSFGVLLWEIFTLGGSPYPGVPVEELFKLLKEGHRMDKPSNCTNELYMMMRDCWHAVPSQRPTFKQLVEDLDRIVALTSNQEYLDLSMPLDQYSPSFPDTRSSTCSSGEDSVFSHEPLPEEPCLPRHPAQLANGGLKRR
# T5 sequence (P21802 22-821): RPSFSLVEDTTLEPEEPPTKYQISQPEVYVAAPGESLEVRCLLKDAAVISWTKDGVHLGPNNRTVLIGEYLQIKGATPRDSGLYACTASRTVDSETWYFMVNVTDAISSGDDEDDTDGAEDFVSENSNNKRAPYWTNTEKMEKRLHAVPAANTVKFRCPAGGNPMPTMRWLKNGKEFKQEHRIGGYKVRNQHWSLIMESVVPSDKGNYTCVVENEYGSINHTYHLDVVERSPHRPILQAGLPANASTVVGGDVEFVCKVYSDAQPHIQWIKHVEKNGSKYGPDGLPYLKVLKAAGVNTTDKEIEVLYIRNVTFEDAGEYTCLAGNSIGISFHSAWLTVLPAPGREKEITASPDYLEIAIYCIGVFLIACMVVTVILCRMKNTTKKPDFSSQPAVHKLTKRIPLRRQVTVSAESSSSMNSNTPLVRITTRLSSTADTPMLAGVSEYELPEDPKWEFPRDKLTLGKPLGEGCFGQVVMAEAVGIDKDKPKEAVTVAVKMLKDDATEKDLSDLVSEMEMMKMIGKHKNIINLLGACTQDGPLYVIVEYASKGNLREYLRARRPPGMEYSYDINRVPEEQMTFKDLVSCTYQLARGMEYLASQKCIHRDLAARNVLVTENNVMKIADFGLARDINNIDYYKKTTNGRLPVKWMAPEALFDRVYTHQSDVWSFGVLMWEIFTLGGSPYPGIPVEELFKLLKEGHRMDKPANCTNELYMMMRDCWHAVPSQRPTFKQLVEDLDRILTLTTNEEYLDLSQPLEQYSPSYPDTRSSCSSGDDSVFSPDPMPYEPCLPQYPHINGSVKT
# T4 sequence (P22607 23-806 V555M): as the sequence (P22607 23-806) above, with V533M counted along it
# T3 sequence (P22455 22-802): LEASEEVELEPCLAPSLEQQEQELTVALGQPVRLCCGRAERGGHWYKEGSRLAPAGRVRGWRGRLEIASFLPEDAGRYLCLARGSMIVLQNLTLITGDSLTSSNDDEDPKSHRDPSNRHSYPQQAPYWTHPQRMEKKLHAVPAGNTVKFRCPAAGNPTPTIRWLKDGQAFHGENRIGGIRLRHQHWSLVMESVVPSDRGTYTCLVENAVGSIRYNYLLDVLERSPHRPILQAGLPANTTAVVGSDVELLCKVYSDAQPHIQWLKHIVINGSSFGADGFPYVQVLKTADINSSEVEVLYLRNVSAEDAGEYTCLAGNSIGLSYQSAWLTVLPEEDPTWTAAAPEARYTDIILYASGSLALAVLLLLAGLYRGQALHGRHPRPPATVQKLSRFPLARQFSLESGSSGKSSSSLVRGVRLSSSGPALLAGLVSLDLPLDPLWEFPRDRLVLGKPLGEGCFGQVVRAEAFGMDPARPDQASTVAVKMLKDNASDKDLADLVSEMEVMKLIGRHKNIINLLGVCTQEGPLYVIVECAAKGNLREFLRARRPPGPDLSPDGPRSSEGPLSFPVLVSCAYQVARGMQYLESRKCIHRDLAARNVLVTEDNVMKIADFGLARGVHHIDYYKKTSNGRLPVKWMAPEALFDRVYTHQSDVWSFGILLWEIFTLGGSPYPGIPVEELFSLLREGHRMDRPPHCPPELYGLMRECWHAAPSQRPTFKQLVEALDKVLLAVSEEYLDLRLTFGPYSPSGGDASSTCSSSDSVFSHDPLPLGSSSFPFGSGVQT
IC50 [1] [nM],Kd (FGFR3) [nM],Kd (FGFR1) [nM],IC50 [2] [nM],IC50 [3] [nM],IC50 [4] [nM],IC50 [5] [nM],Kd (FGFR4) [nM],Kd (FGFR3 (V555M)) [nM],Kd (FGFR2) [nM],SMILES
200 to 1000,1 to 50,1 to 50,0.1 to 50,50 to 200,50 to 200,,,,,"CC(C)CNC1(C)CN(c2ccc(-c3n[nH]c4ccc(O[C@H](C)c5c(Cl)cncc5Cl)cc34)nn2)C1 [Example 242, (R)-1-(6-(5-(1-(3,5-dichloropyridin-4-yl)ethoxy)-1H-indazol-3-yl)pyridazin-3-yl)-N-isobutyl-3-methylazetidin-3-amine]"
50 to 200,1 to 50,1 to 50,0.1 to 50,200 to 1000,200 to 1000,,,,,"C[C@@H](Oc1ccc2[nH]nc(-c3cnc(N4CC(C)(NCC5CC5)C4)cc3F)c2c1)c1c(Cl)cncc1Cl [Example 243, (R)—N-(cyclopropylmethyl)-1-(5-(5-(1-(3,5-dichloropyridin-4-yl)ethoxy)-1H-indazol-3-yl)-4-fluoropyridin-2-yl)-3-methylazetidin-3-amine]"
200 to 1000,1 to 50,1 to 50,0.1 to 50,50 to 200,50 to 200,,,,,"CC(C)NC1(C)CN(c2ccc(-c3n[nH]c4ccc(O[C@H](C)c5c(Cl)cncc5Cl)cc34)nn2)C1 [Example 244, (R)-1-(6-(5-(1-(3,5-dichloropyridin-4-yl)ethoxy)-1H-indazol-3-yl)pyridazin-3-yl)-N-isopropyl-3-methylazetidin-3-amine]"
> 1000,1 to 50,50 to 300,50 to 200,> 1000,> 1000,,,,,"CC(C)CN(C)C1(C)CN(c2ncc(-c3n[nH]c4ccc(O[C@H](C)c5c(Cl)cncc5Cl)cc34)cc2F)C1 [Example 245, (R)-1-(5-(5-(1-(3,5-dichloropyridin-4-yl)ethoxy)-1H-indazol-3-yl)-3-fluoropyridin-2-yl)-N-isobutyl-N,3-dimethylazetidin-3-amine]"
200 to 1000,1 to 50,1 to 50,0.1 to 50,200 to 1000,50 to 200,,,,,"C[C@@H](Oc1ccc2[nH]nc(-c3cnc(N4CC(C)(N(C)CC5CC5)C4)c(F)c3)c2c1)c1c(Cl)cncc1Cl [Example 246, (R)-N-(cyclopropyl-methyl)-1-(5-(5-(1-(3,5-dichloropyridin-4-yl)ethoxy)-1H-indazol-3-yl)-3-fluoropyridin-2-yl)-N,3-dimethylazetidin-3-amine]"
50 to 200,1 to 50,1 to 50,0.1 to 50,50 to 200,50 to 200,,,,,"CCC1(NCC2CC2)CN(c2ncc(-c3n[nH]c4ccc(O[C@H](C)c5c(Cl)cncc5Cl)cc34)cc2F)C1 [Example 247, N-(cyclopropylmethyl)-1-[5-[5-[(1R)-1-(3,5-dichloro-4-pyridyl)ethoxy]-1H-indazol-3-yl]-3-fluoro-2-pyridyl]-3-ethyl-azetidin-3-amine dihydrochloride]"
200 to 1000,1 to 50,50 to 300,0.1 to 50,200 to 1000,50 to 200,,,,,"Cc1ncc(Cl)c([C@@H](C)Oc2ccc3[nH]nc(-c4cnc(N5CC(CC#N)(NCC6CC6)C5)c(F)c4)c3c2)c1Cl [Example 250, 2-[3-(cyclopropylmethyl-amino)-1-[5-[5-[(1R)-1-(3,5-di-chloro-2-methyl-4-pyridyl)ethoxy]-1H-indazol-3-yl]-3-fluoro-2-pyridyl]azetidin-3-yl]acetonitrile]"
,1 to 50,1 to 50,0.1 to 50,0.1 to 50,0.1 to 50,0.1 to 50,1 to 50,1 to 50,1 to 50,"COc1cc2[nH]nc(-c3cnc(N4CC(C)(NCC5CC5)C4)nc3)c2cc1O[C@H](C)c1c(Cl)cncc1Cl [Example 339, (R)-N-(cyclopropyl-methyl)-1-(5-(5-(1-(3,5-dichloropyridin-4-yl)ethoxy)-6-methoxy-1H-indazol-3-yl)pyrimidin-2-yl)-3-methylazetidin-3-amine]"
